Here are results for six substances from US20210213135A1 (Purdue Research Foundation, priority 2018, published 2021).

Primed or numbered codes have the meaning given here. Where no end group is shown, it is not given here. [ ]: non-standard residue; d: D form. PEG10′ = polyethylene glycol 10 linker; minipeg = minipeg spacer

Experiment [1] has as its system Swiss Webster fracture-bearing mice (fracture callus). The experiment in a line: micro CT of the fracture callus in the femur fracture model. Format: in vivo.
Experiment [2] has as its system Swiss Webster fracture-bearing mice (healed femur). Put plainly: postmortem 4 point bend of the healed femur. It is filed as in vivo. Conditions: n=5. The text has this: All in vivo data included herein are from Swiss Webster mice. All mice received an osteotomy on their right femur and received subcutaneous drug administration daily for either 2,3 or 4 weeks, or 17 days, as indicated, for each compound. 1× concentration represents 1 nmol/day, 10× represents 10 nmol/day, 100× represents 100 nmol/day most studies have an n of 5.
The term “Peak Load” means a postmortem 4 point bend of the healed femur. Peak load represents the maximum force the healed femur withstood before it refractured.
The targeted conjugates were synthesized using standard Fmoc solid-phase peptide synthesis, as described above. To ensure the conjugates' activity, mouse pre-osteoblast ([…]) cells were treated with the targeted and untargeted compounds for three days at concentrations from 1 pM to 100 nM. After three days of treatment, the cells were harvested, and the RNA was purified from the cells. Expression levels of ALP, RUNx2 (transcription factor for osteoblast differentiation), osterix (OSX), osteopontin (OPN), collagen 1A (Col-1A), OPG, RANKL, sclerostin gene (SOST), and OC were quantified via quantitative reverse transcription polymerase chain reaction (RT-qPCR). Once the biological activity of the conjugates was confirmed, they were tested in vivo in a fracture model. Aseptic surgical techniques were used to place a 23-gage needle as in intramedullary nail in the femur of anesthetized, 12-week-old Swiss Webster mice for internal fixation before fracture. Femur fractures were induced using a drop weight fracture device from RISystem. The mice received buprenorphine for three days post fracture. The mice were dosed subcutaneously each day for three weeks or 17 days. Fracture healing was assessed using microCT (Scanco Medical Ag). Morphometric parameters were quantified in the 100 widest slices of the fracture callus. Trabecular thickness (Tb.Th.), trabecular spacing (Tb.Sp.), total volume (TV), and volume of calcified callus (BV) were calculated. Fractured femurs were tested for strength in a four-point bend to failure using an Electro Force TestBench (TA Instruments). Lower supports were 10 mm apart on the anterior face of the femur in contact with the proximal and distal diaphysis. Upper supports were 4 mm apart and spanned the entire fracture callus on the diaphysis. Force was applied from the posterior face of the femur with a displacement rate of 0.3 mm/sec. Peak load, yield load, stiffness, displacement post yield, work to fracture, and deformation data were generated. Statistical analysis was performed using a two-way analysis of variance (ANOVA) and a Tukey post-hoc analysis with significance reported at the 95% confidence level. All animal experiments were performed in accordance with protocols approved by Purdue University's Institutional Animal Care and Use Committee (IACUC).

[3] abbreviates: 3 weeks, 0.1, 1 and 10 nmol daily s.c.
Setting [4] is: 17 days, 1, 10 and 100 nmol daily s.c., n=5.
Where [5] appears, read: 17 days, 1, 10 and 100 nmol daily s.c.
Setting [6] is: 3 weeks, 1, 10 and 100 nmol daily s.c., n=5.
[7] abbreviates: 3 weeks, 1, 10 and 100 nmol daily s.c.

In the case of “IKVAV_mp4_(D)E10: SEQ ID NO: 26, laminin fragment IKVAV conjugated via 4 minipegs with 10 glutamic acids (H[dE][dE][dE][dE][dE][dE][dE][dE][dE][dE][minipeg][minipeg][minipeg][minipeg]GQAASIKVAVSADR)”, the BV/TV result in experiment [1] (setting [3]) is on record as “raises bone density”. Moreover, the “BV (bone volume)” value in experiment [1] (3 weeks, 0.1, 1 and 10 nmol daily s.c., n=5) is recorded as “raises bone mineralization”. Further, in experiment [2] (setting [3]), the “Max load (peak load)” value is listed as “raises bone strength” and the Work to fracture entry was “raises bone strength”.
In the case of “P3_mp4_(D)E10: SEQ ID NO: 29, P3 fragment of bone sialoprotein followed by a 4 minipeg spacer and 10 (D) glutamic acids (HYESENGEPRGDNYRAYEEEEEEEEEE; 4 minipeg spacer; D-glutamic acids; P3_mp4_e10)”, in experiment [1] (setting [4]), the “BV (bone volume)” value is reported as “raises bone mineralization” and the BV/TV result is recorded as “raises bone density”. Further, in experiment [2] (setting [5]), the “Max load (peak load)” value was “raises bone strength” and the Work to fracture result is on record as “raises bone strength”.
As for “P-15_mp4_(D)E10: SEQ ID NO: 23, a P15 fragment connect via 4 peg2 spacers to (D)E10 bone targeting ligand (HGTPGPQGIAGQRGVVEEEEEEEEEE; 4 PEG2 spacers; D-glutamic acids; P15_mp4_e10)”, in experiment [1] (setting [6]), the “BV (bone volume)” value was “raises bone mineralization” and the BV/TV entry was “raises bone density”. In experiment [2] (setting [7]), the “Max load (peak load)” value is listed as “raises bone strength” and the Work to fracture result was “raises bone strength”.
On to “CTC_peg10_(D)E10: SEQ ID NO: 20, chemotactic collagen fragment CTC linked via polyethylene glycol 10 to 10 (D) glutamic acids (H[dE][dE][dE][dE][dE][dE][dE][dE][dE][dE][PEG10′]IAGVGGEKSGGF)”, for which the BV/TV result in experiment [1] (setting [3]) was “raises bone density”. Further, the “Max load (peak load)” value in experiment [2] (setting [7]) was “improves bone strength”.
Regarding “CBD_MP4_(D)E10: SEQ ID NO: 32, 1-28 of osteopontin followed by 4 peg 2 spacers followed by ten d glutamic acids (HNGVFKYRPRYYLYKHAYFYPHLKRFPVQEEEEEEEEEE; 4 PEG2 spacers; D-glutamic acids; CBD _MP4_e10)”, in experiment [1] (setting [6]), the BV/TV entry is listed as “raises bone density” and the “Tbth (trabecular thickness)” value is given as “raises bone quality”. Also, the Work to fracture result in experiment [2] (setting [7]) is given as “improves bone strength”.
Regarding “P-15_(D)E10: SEQ ID NO: 22, P15 collagen fragment conjugated with 10 glutamic acids (HGTPGPQGIAGQRGVV[dE][dE][dE][dE][dE][dE][dE][dE][dE][dE])”, the BV/TV result in experiment [1] (setting [3]) was “raises bone density”. In experiment [2] (setting [3]), the “Max load (peak load)” value is “raises bone strength”.
